Assay results reported in patent US20240360076A1, “NONIONIC SURFACTANTS” (priority 2023, published 2024).

Legend:
[1] = test system: SARS-COV-2 target template; assay: SARS-COV-2 LAMP assay; assay type: biochemical; settings: 0.0075% in LAMP MasterMix
[2] = assay type: physicochemical; settings: buffer, 1 month, 0.1 %, pH 8.8
Experimental: Solutions of isothermal amplification buffers at pH 8.8 containing 0.1% of DS2, DS13, or DS17 were kept at 25° C. and analyzed over time using HPLC. It was observed that 95%-100% of the surfactant remained after one month (FIG. 5A) and therefore DSs are stable in pH 8.8 amplification buffer when stored in ambient conditions.

FluB target RNA sequence = assay: FluB LAMP assay, time to positive; assay type: biochemical; settings: for compatibility with FluB assay: presence of nasal matrix
Experimental: As the surfactant concentration approaches its critical micelle concentration (CMC), detrimental impact is observed on LAMP performance.
It was determined that DS2 is compatible with FluB assay in the presence of nasal matrix at 0.015%.

Ex2B target template = assay: Ex2B LAMP assay; settings: 0.0075% in LAMP MasterMix
Experimental: DS2 was added at 0%, 0.015%, 0.0575%, and 0.1% to the LAMP MasterMix, or LAMP buffer, containing target-specific primers, dNTPs, DNA polymerase, reverse transcriptase, intercalating fluorescent dye, and the target RNA sequence. This reaction mixture was incubated at 62° C. for 50 minutes and the increase in fluorescence was assessed to determine the time to positivity.
DS2, DS13, and DS17 were added at 0.0075% to the LAMP MasterMix using the above procedure with Ex2B target template (FIG. 4B).

[3] = CMC determination by dynamic light scattering; assay type: physicochemical
Experimental: Average micelle radius data was collected on a DynaPro NanoStar Dynamic Light Scattering Detector. To each disposable cuvette was added 5 μL of the specified solution of DS1, DS2, or DS13 in water (T=25° C., n=10).

MS2 template = assay: Lyophilized MS2 LAMP chemistry, time to positive; assay type: biochemical; settings: 0%, 0.03% or 0.06%; template 0.12 cp/μL and 0.06 cp/μL
[4] = 2 months

| Compound | compatibility with SARS-COV-2 assay [1] | surfactant remaining [2] | compatibility with FluB assay (FluB target RNA sequence; 0.0075% in LAMP MasterMix) | compatibility with Ex2B assay (Ex2B target template) | critical micelle concentration (CMC) [3] | compatibility with FluB assay (FluB target RNA sequence; 0.015% in LAMP buffer) | impact on LAMP performance at the CMC (FluB target RNA sequence; 0.1% DS2, FluB LAMP, nasal matrix, 62° C. for 50 minutes) | impact on assay specificity below the CMC (FluB target RNA sequence; concentrations below the CMC) | impact on time to positive (Tp, min) (MS2 template) | remaining [4] |
| --- | --- | --- | --- | --- | --- | --- | --- | --- | --- | --- |
| CCCCCCCCCCC(=O)NCCOCCOCCOCCOCCOCCOC [DS17] | compatible | 95%-100 | compatible | compatible |  |  |  |  |  |  |
| CCCCCCCCCCC(=O)N(CCOCCOCCOC)CCOCCOCCOC [DS2] | compatible | 95%-100 | compatible | compatible | 0.1% | compatible | delay in the contrived positive amplification | no detrimental impact |  |  |
| CCCCCCCCCCC(=O)N(CCOCCOCCOCCOC)CCOCCOCCOCCOC [DS13] | compatible | 95%-100 | compatible | compatible |  |  |  |  | no detrimental impact | 97.1±1.5% |
